Data published in patent US20110275675A1, “Antimicrobial Dental Materials” (IVOCLAR VIVADENT AG, priority 2010, published 2011).
Entries after “also recorded” stand apart in the source; their conditions may differ.

How the values were obtained:
[1] = Influence on radical polymerization: chemical hardening of Systemp.link; assay type: physicochemical; conditions: 3.0 wt.-%
Method: 3.0 wt.-% triclosan or 3.0 wt.-% of the antimicrobial active ingredient of formula (Ia) was incorporated into the base paste of the commercially available composite-based temporary fixing cement Systemp.link (Ivoclar Vivadent AG), which hardens radically. The processing time (PT), setting time (ST) and Shore D hardness in the case of chemical hardening were then determined.

[2] = Hardening on exposure to dental polymerization light; assay type: physicochemical; conditions: 20 s exposure to light (Bluephase); 0.2 or 0.5 wt.-% Ia in Fermit
Method: (§1) 0.2 wt.-% or 0.5 wt.-% of the antimicrobial active ingredient of formula (Ia) was incorporated into the commercially available composite-based temporary filling material Fermit (Ivoclar Vivadent AG). […] The Shore D hardness was then determined (see Table 4 for results).

[3] = Hardening properties of composite-based temporary cement (Systemp.link); assay type: physicochemical; conditions: 0.3 or 3.0 wt.-%
Method: 0.3 wt.-% or 3.0 wt.-% of the antimicrobial active ingredient of formula (Ia) was incorporated into the base paste of the commercially available composite-based temporary fixing cement Systemp.link (Ivoclar Vivadent AG). The processing time (PT), setting time (ST) and Shore D hardness were then determined.

[4] = Shore D hardness of temporary filling material (Fermit); assay type: physicochemical; conditions: 0.2 or 0.5 wt.-%
Method: as §1

[5] = Hardening properties of temporary cement based on polycarboxylate/zinc oxide (Systemp.cem); assay type: physicochemical; conditions: 0.3 or 3.0 wt.-%
Method: 0.3 wt.-% or 3.0 wt.-% of the antimicrobial active ingredient of formula (Ia) was incorporated into the initiator paste of the commercially available temporary fixing cement based on polycarboxylate/zinc oxide Systemp.cem (Ivoclar Vivadent AG). The processing time (PT), setting time (ST) and Shore D hardness were then determined.

Streptococcus mutans = assay: Agar plate zone of inhibition test; assay type: cell-based, S. mutans DSM20723; conditions: 24 h at 37° C./5% CO2
Source text: To determine the antimicrobial action of a temporary dental cement with the active ingredient of formula (Ia), 3.0 wt.-% of the active ingredient of formula (Ia) was incorporated into the commercially available cement Systemp.link (Ivoclar Vivadent AG). Round testpieces with a diameter of 10 mm and a thickness of 2 mm were then shaped into small plates with the corresponding material and then cured. Testpieces made of Systemp.link without active ingredient and also with 1.0 and 3.0 wt.-% triclosan served as reference. After this, the antimicrobial action on the bacterial strain Streptococcus mutans was studied. The agar plate zone of inhibition test was used for this.
Bacterial strain: S. mutans DSM20723 Cultivation medium: BHI broth
100 μl undiluted S. mutans culture solution was plated out onto agar plates. The testpieces were then placed on the agar plates. After 24 h storage at 37° C./5% CO2, the plates were assessed.

[6] = Through-curing depth of light-curing composite filling material; assay type: physicochemical; conditions: 3.0 or 5.0 wt.-%
Method: A composite filling material with the following composition was prepared:
3.0 wt.-% or 5.0 wt.-% of the antimicrobial active ingredient of formula (Ia) was incorporated into the composite filling material. After 20 s exposure to light with a dental polymerization light (Bluephase®, Ivoclar Vivadent AG), the through-curing depth was determined. For comparison, the antimicrobial active ingredients triclosan and chlorhexidine diacetate were also incorporated into the composite material in a quantity of 3.0 wt.-% or 5.0 wt.-% and the through-curing depth determined (see Table 5 for results).

[7] = 3.0 wt.-% active ingredient in cured Systemp.link small plates

Row | Structure (SMILES) | Influence on the chemical hardening of Systemp.link [1] | Hardening after exposure to light [2] | Influence on the hardening of Systemp.link [3] | Influence on the hardening of Fermit [4] | Influence on the hardening of Systemp.cem [5] | Formation of zones of inhibition (Streptococcus mutans; [7]) | Influence on the through-curing depth of the composite material [6] | Formation of zones of inhibition (Streptococcus mutans; 1.0 wt.-% active ingredient in cured Systemp.link small plates)
1 | CCCCCCCCNc1cc[n+](CCCCCCCCCC[n+]2ccc(NCCCCCCCC)cc2)cc1 [Ia] | does not have a significant negative influence | hardened completely | does not have a significant negative influence | does not have a significant negative influence | does not have a significant negative influence | clear zones of inhibition | does not have a significant negative influence | –
2 | CC(=O)O.CC(=O)O.NC(=N\CCCCCC/N=C(N)/N=C(\N)Nc1ccc(Cl)cc1)/N=C(\N)Nc1ccc(Cl)cc1 [chlorhexidine diacetate] | – | – | – | – | – | – | dramatically reduced | –
3 | Oc1cc(Cl)ccc1Oc1ccc(Cl)cc1Cl [triclosan, 2,4,4′-trichloro-2′-hydroxydiphenylether] | completely inhibited | – | – | – | – | does not bring about a formation of zones of inhibition; also recorded: zones of inhibition do not form | dramatically reduced | does not bring about a formation of zones of inhibition; also recorded: zones of inhibition do not form
